Results reported in patent US4757153A, “Sulfide, sulfinyl and sulfone dipeptide amides” (G. D. Searle & Co., priority 1986, dated 1988).
pIC50: −log10 of the molar value.

Experiments:
[1] = test system: phenylbenzoquinone-induced writhing in mice; assay: Writhing assay (phenylbenzoquinone-induced writhing); format: in vivo, mouse; conditions: 30 min before phenylbenzoquinone i.p., active = writhes significantly less than saline group; for Writhing Mouse Oral: screening dose 10 mg/kg oral (intragastric); for Writhing Mouse Subc.: screening dose 10 mg/kg subcutaneous
Method: Writhing assay. Male Charles River albino mice (CD-1/HAM/1LR) weighing between 20 and 30 grams were used. Thirty minutes after subcutaneous or intragastric administration of the test compound (0.1 ml/10 gram body weight), 0.025% (w/v) phenylbenzoquinone was injected intraperitoneally (0.1 ml/10 gram body weight). Five minutes later, each mouse was placed in a large glass beaker and the number of writhes that occurred in the subsequent ten minutes is counted. A writhe consisted of dorsoflexion of the back, extension of the hindlimbs, and strong contraction of the abdominal musculature. The test compound was considered to have produced analgesia in a mouse if the number of writhes elicited by phenylbenzoquinone was equal to or less than one-half the median number of writhes recorded for the saline-treated group that day. The results were expressed as the number of mice (out of a possible ten) in which the test compound produced analgesia. […] If the initial test dose of 10 mg/kg inhibited writhing in greater than 6 of 10 mice, the effect of additional doses was evaluated and an ED50 value was calculated using a maximum likelihood function.

[2] = biological target: opiate receptors isolated from rat brain; assay: Opiate Binding Assay (displacement of 3H-Naloxone); conditions: concentration inhibiting specific binding of 1 nM 3H-Naloxone to rat brain receptor membranes by 50%
Method: Opiate Binding Assay. The test compounds were evaluated for their ability to displace the binding of ^3 H-Naloxone to opiate receptors isolated from rat brain. Male rats [Crl: CD(SD)BR] obtained from Charles River Laboratories (Portage, MI) were sacrificed by cervical dislocation. A purified homogenate of receptor membranes was prepared from the brains according to the method described by Chang and Cuatrecasas. (K.-J. Chang and P. Cuatrecasas. Multiple Opiate Receptors: Enkephalins And Morphine Bind To Receptors Of Different Specificity. J. Biol. Chem. 254, 2610-2618 (1979).) The brains were homogenized in 10 volumes of 0.32M sucrose and centrifuged twice at 6,000xg for 15 minutes. Following centrifugation of the supernatants at 40,000xg for 30 minutes, the pellets were resuspended in 5 mM tris-HCl, and centrifuged at 6,000. The supernatant was centrifuged at 40,000xg. The resuspension in 5 mM Tris-HCl was repeated twice. The final pellet was resuspended in 2 volumes of 50 mM tris HCl (pH 7.4). The homogenate was assayed for protein content according to the method of Itzhaki and Gill (R. F. Itzhaki and D. M. Gill. A Micro-Biuret Method for Estimating Proteins. Anal. Biochem. 9, 401-410 (1964)).
The binding of the test compounds to the receptor membrane preparation was measured using a modification of the method of Pert and Snyder (C. B. Pert and S. H. Synder. Properties of Opiate-Receptor Binding in Rat Brain. Proc. Natl. Acad. Sci. 70, 2243-2247 (1973)). The receptor assay was run using final concentrations of 1 nM ^3 H-Naloxone and of tissue homogenate (0.5 mg/ml of homogenate protein. Levorphanol (1×10^-5 M) was used as the displacer for non-specific binding. Final concentration of the test compounds was 10^-5 M. The assay was run in 0.05M tris HCl (pH 7.4). Total assay volume was 1.0 ml.
Samples were incubated at 25° C. for 60 min., filtered over Whatman GF/C glass fiber filters, and rinsed twice with 4 ml washes of ice-cold buffer. The filters were air-dried at 50° C. for 30 min. After drying 10 mls of PCS was added to the vial and the radioactivity determined using a Tracor Analytic Mark III liquid scintillation counter with a counting efficiency of 48%.
The IC50 values, the concentration of the test compounds which inhibited ^3 H-Naloxone specific binding to the opiate receptor by 50%, were obtained from log-logit plots of concentration-response curves.

[3] = test system: brain opiate receptor sites; conditions: partially purified brain opiate receptor sites; Bradberry et al. 1976; cited from earlier work
rat = conditions: injected directly into the brain of the rat; Belluzi et al. 1976; cited from earlier work

Compound | Writhing Mouse Oral [1] | Writhing Mouse Subc. [1] | pIC50 [2] | binding to brain opiate receptor sites [3] | analgesic activity (rat)
2,6-dimethyl-D-tyrosyl-N-(3-phenylpropyl)-D-methioninamide, monohydrochloride [Example 15] | Inactive | Inactive | 6.80 | – | –
2,6-dimethyl-L-tyrosyl-N-(3-phenylpropyl)-D-methioninamide, monohydrochloride [Example 14] | Active | Active | 9.70 | – | –
2,6-dimethyl-L-tyrosyl-α-(methylsulfinyl)-N-(3-phenylpropyl)-D-α-aminobutanamide, monohydrochloride [Example 16] | Active | Active | 9.40 | – | –
Cc1cc(O)cc(C)c1C[C@@H](N)C(=O)N[C@H](CC[S+](C)[O-])C(=O)NCCCc1ccccc1.Cl (stereo partly drawn) [Example 17, 2,6-dimethyl-D-tyrosyl-γ-(methylsulfinyl)-N-(3-phenylpropyl)-D-α-aminobutanamide, monohydrochloride] | Inactive | Inactive | 7.02 | – | –
L-tyrosyl-N-(3-phenylpropyl)-D-methioninamide, monohydrochloride [Example 4] | Inactive | Inactive | 7.80 | – | –
L-tyrosyl-γ-(methylsulfonyl)-N-(3-phenylpropyl)-DL-α-aminobutanamide, monohydrochloride [Example 8] | Inactive | Inactive | 8.02 | – | –
methionine enkephalin | – | – | – | binds stereospecifically | weak, fleeting analgesic activity
